± gives the expanded uncertainty stated by the source.
Assays:
[1] = refractive index (Na D-line) (dimensionless); settings: 100 kPa, Liquid, Standard Abbe refractometry
[2] = relative permittivity at various frequencies (dimensionless); settings: 100 kPa, Liquid, Frequency=2 MHz, Parallel plate capacitor

**Q.** For `CCc1cccs1` [2-ethylthiophene], which refractive index ([1]; 283.15 K) is on record?
**A.** 1.51841 ± 0.00037

**Q.** And the refractive index ([1]; 285.65 K)?
**A.** 1.51699 ± 0.00037

**Q.** And the refractive index ([1]; 288.15 K)?
**A.** 1.51557 ± 0.00037

**Q.** What about the refractive index ([1]; 290.65 K) of the same compound?
**A.** 1.51417 ± 0.00037

**Q.** What about the refractive index ([1]; 293.15 K) of the same compound?
**A.** 1.51272 ± 0.00037

**Q.** What about the refractive index ([1]; 295.65 K) of the same compound?
**A.** 1.51125 ± 0.00037

**Q.** What about the refractive index ([1]; 298.15 K) of the same compound?
**A.** 1.50981 ± 0.00037

**Q.** And the refractive index ([1]; 300.65 K)?
**A.** 1.50841 ± 0.00037

**Q.** What about the refractive index ([1]; 303.15 K) of the same compound?
**A.** 1.50698 ± 0.00037

**Q.** And the refractive index ([1]; 305.65 K)?
**A.** 1.50556 ± 0.00037

**Q.** What about the refractive index ([1]; 308.15 K) of the same compound?
**A.** 1.50413 ± 0.00037

**Q.** And the refractive index ([1]; 310.65 K)?
**A.** 1.50269 ± 0.00037

**Q.** And the refractive index ([1]; 313.15 K)?
**A.** 1.50125 ± 0.00037

**Q.** And the refractive index ([1]; 315.65 K)?
**A.** 1.49981 ± 0.00037

**Q.** What about the refractive index ([1]; 318.15 K) of the same compound?
**A.** 1.49836 ± 0.00037

**Q.** And the refractive index ([1]; 320.65 K)?
**A.** 1.49695 ± 0.00037

**Q.** And the refractive index ([1]; 323.15 K)?
**A.** 1.4955 ± 0.00037

**Q.** And the refractive index ([1]; 325.65 K)?
**A.** 1.49405 ± 0.00037

**Q.** And the refractive index ([1]; 328.15 K)?
**A.** 1.49261 ± 0.00037

**Q.** What about the refractive index ([1]; 330.65 K) of the same compound?
**A.** 1.49116 ± 0.00037

**Q.** And the refractive index ([1]; 333.15 K)?
**A.** 1.48973 ± 0.00037

**Q.** And the refractive index ([1]; 335.65 K)?
**A.** 1.48827 ± 0.00037

**Q.** And the refractive index ([1]; 338.15 K)?
**A.** 1.48684 ± 0.00037

**Q.** What about the relative permittivity ([2]; 278.15 K) of the same compound?
**A.** 2.968 ± 0.33

**Q.** What about the relative permittivity ([2]; 280.65 K) of the same compound?
**A.** 2.959 ± 0.33

**Q.** And the relative permittivity ([2]; 283.15 K)?
**A.** 2.946 ± 0.33

**Q.** What about the relative permittivity ([2]; 285.65 K) of the same compound?
**A.** 2.936 ± 0.33

**Q.** And the relative permittivity ([2]; 288.15 K)?
**A.** 2.929 ± 0.33

**Q.** What about the relative permittivity ([2]; 290.65 K) of the same compound?
**A.** 2.916 ± 0.33

**Q.** And the relative permittivity ([2]; 293.15 K)?
**A.** 2.911 ± 0.33

**Q.** What about the relative permittivity ([2]; 295.65 K) of the same compound?
**A.** 2.9 ± 0.33

**Q.** And the relative permittivity ([2]; 298.15 K)?
**A.** 2.887 ± 0.33

**Q.** What about the relative permittivity ([2]; 300.65 K) of the same compound?
**A.** 2.878 ± 0.33

**Q.** What about the relative permittivity ([2]; 303.15 K) of the same compound?
**A.** 2.871 ± 0.33

**Q.** What about the relative permittivity ([2]; 305.65 K) of the same compound?
**A.** 2.858 ± 0.33

**Q.** And the relative permittivity ([2]; 308.15 K)?
**A.** 2.848 ± 0.33

**Q.** What about the relative permittivity ([2]; 310.65 K) of the same compound?
**A.** 2.838 ± 0.33

**Q.** What about the relative permittivity ([2]; 313.15 K) of the same compound?
**A.** 2.833 ± 0.33

**Q.** And the relative permittivity ([2]; 315.65 K)?
**A.** 2.82 ± 0.32

**Q.** What about the relative permittivity ([2]; 318.15 K) of the same compound?
**A.** 2.81 ± 0.32

**Q.** What about the relative permittivity ([2]; 320.65 K) of the same compound?
**A.** 2.799 ± 0.32

**Q.** What about the relative permittivity ([2]; 323.15 K) of the same compound?
**A.** 2.792 ± 0.32

**Q.** What about the relative permittivity ([2]; 325.65 K) of the same compound?
**A.** 2.782 ± 0.32

**Q.** And the relative permittivity ([2]; 328.15 K)?
**A.** 2.775 ± 0.32

**Q.** What about the relative permittivity ([2]; 330.65 K) of the same compound?
**A.** 2.766 ± 0.32

**Q.** What about the relative permittivity ([2]; 333.15 K) of the same compound?
**A.** 2.753 ± 0.32

**Q.** And the relative permittivity ([2]; 335.65 K)?
**A.** 2.745 ± 0.32

**Q.** What about the relative permittivity ([2]; 338.15 K) of the same compound?
**A.** 2.734 ± 0.32

**Q.** For `CCc1ccco1` [2-ethylfuran], which refractive index ([1]; 283.15 K) is on record?
**A.** 1.44533 ± 0.00033

**Q.** And the refractive index ([1]; 285.65 K)?
**A.** 1.4439 ± 0.00033

**Q.** What about the refractive index ([1]; 288.15 K) of the same compound?
**A.** 1.44245 ± 0.00033

**Q.** And the refractive index ([1]; 290.65 K)?
**A.** 1.44101 ± 0.00033

**Q.** And the refractive index ([1]; 293.15 K)?
**A.** 1.43956 ± 0.00033

**Q.** And the refractive index ([1]; 295.65 K)?
**A.** 1.43817 ± 0.00033

**Q.** And the refractive index ([1]; 298.15 K)?
**A.** 1.43672 ± 0.00033

**Q.** What about the refractive index ([1]; 300.65 K) of the same compound?
**A.** 1.43531 ± 0.00033

**Q.** What about the refractive index ([1]; 303.15 K) of the same compound?
**A.** 1.43387 ± 0.00033

**Q.** And the refractive index ([1]; 305.65 K)?
**A.** 1.43244 ± 0.00033

**Q.** And the refractive index ([1]; 308.15 K)?
**A.** 1.431 ± 0.00033

**Q.** What about the refractive index ([1]; 310.65 K) of the same compound?
**A.** 1.42958 ± 0.00033

**Q.** And the refractive index ([1]; 313.15 K)?
**A.** 1.42814 ± 0.00033

**Q.** And the refractive index ([1]; 315.65 K)?
**A.** 1.42671 ± 0.00033

**Q.** And the refractive index ([1]; 318.15 K)?
**A.** 1.42528 ± 0.00033

**Q.** And the refractive index ([1]; 320.65 K)?
**A.** 1.42385 ± 0.00033

**Q.** What about the refractive index ([1]; 323.15 K) of the same compound?
**A.** 1.42241 ± 0.00033

**Q.** And the refractive index ([1]; 325.65 K)?
**A.** 1.42097 ± 0.00033

**Q.** What about the refractive index ([1]; 328.15 K) of the same compound?
**A.** 1.41953 ± 0.00033

**Q.** What about the refractive index ([1]; 330.65 K) of the same compound?
**A.** 1.4181 ± 0.00033

**Q.** And the refractive index ([1]; 333.15 K)?
**A.** 1.41669 ± 0.00033

**Q.** And the refractive index ([1]; 335.65 K)?
**A.** 1.41523 ± 0.00033

**Q.** What about the refractive index ([1]; 338.15 K) of the same compound?
**A.** 1.41379 ± 0.00033

**Q.** What about the relative permittivity ([2]; 278.15 K) of the same compound?
**A.** 2.837 ± 0.33

**Q.** What about the relative permittivity ([2]; 280.65 K) of the same compound?
**A.** 2.823 ± 0.32

**Q.** And the relative permittivity ([2]; 283.15 K)?
**A.** 2.813 ± 0.32

**Q.** What about the relative permittivity ([2]; 285.65 K) of the same compound?
**A.** 2.798 ± 0.32

**Q.** And the relative permittivity ([2]; 288.15 K)?
**A.** 2.784 ± 0.32

**Q.** And the relative permittivity ([2]; 290.65 K)?
**A.** 2.766 ± 0.32

**Q.** What about the relative permittivity ([2]; 293.15 K) of the same compound?
**A.** 2.756 ± 0.32

**Q.** What about the relative permittivity ([2]; 295.65 K) of the same compound?
**A.** 2.739 ± 0.32

**Q.** And the relative permittivity ([2]; 298.15 K)?
**A.** 2.725 ± 0.32

**Q.** What about the relative permittivity ([2]; 300.65 K) of the same compound?
**A.** 2.709 ± 0.32

**Q.** What about the relative permittivity ([2]; 303.15 K) of the same compound?
**A.** 2.699 ± 0.32

**Q.** And the relative permittivity ([2]; 305.65 K)?
**A.** 2.682 ± 0.32

**Q.** What about the relative permittivity ([2]; 308.15 K) of the same compound?
**A.** 2.668 ± 0.32

**Q.** What about the relative permittivity ([2]; 310.65 K) of the same compound?
**A.** 2.657 ± 0.32

**Q.** What about the relative permittivity ([2]; 313.15 K) of the same compound?
**A.** 2.643 ± 0.32

**Q.** And the relative permittivity ([2]; 315.65 K)?
**A.** 2.626 ± 0.32

**Q.** And the relative permittivity ([2]; 318.15 K)?
**A.** 2.611 ± 0.32

**Q.** What about the relative permittivity ([2]; 320.65 K) of the same compound?
**A.** 2.601 ± 0.32

**Q.** What about the relative permittivity ([2]; 323.15 K) of the same compound?
**A.** 2.583 ± 0.31

**Q.** And the relative permittivity ([2]; 325.65 K)?
**A.** 2.573 ± 0.31

**Q.** And the relative permittivity ([2]; 328.15 K)?
**A.** 2.559 ± 0.31

**Q.** What about the relative permittivity ([2]; 330.65 K) of the same compound?
**A.** 2.544 ± 0.31

**Q.** What about the relative permittivity ([2]; 333.15 K) of the same compound?
**A.** 2.527 ± 0.31

**Q.** And the relative permittivity ([2]; 335.65 K)?
**A.** 2.516 ± 0.31

**Q.** What about the relative permittivity ([2]; 338.15 K) of the same compound?
**A.** 2.503 ± 0.31

Source: the NIST ThermoML archive (doi:10.1021/acs.jced.8b00153)
